Molecular target: Survival motor neuron protein (Homo sapiens, UniProt Q16637)
Assay: Stabilization of human SMN protein expressed in HEK293 cells expressing SMN2 promoter after 24 hrs by luciferase reporter gene assay

Sequence of Survival motor neuron protein (Q16637 whole entry): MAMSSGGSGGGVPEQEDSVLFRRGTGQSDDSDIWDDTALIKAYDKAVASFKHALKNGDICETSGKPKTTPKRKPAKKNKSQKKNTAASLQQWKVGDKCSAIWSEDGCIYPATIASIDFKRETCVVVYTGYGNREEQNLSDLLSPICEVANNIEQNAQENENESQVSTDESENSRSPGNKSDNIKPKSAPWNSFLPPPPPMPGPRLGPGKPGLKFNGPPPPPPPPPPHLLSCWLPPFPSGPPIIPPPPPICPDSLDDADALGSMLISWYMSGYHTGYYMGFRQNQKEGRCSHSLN

Cc1cccc(NC(=O)c2cc(C(C)C)on2)c1
EC50: 1800 nM

CC(C)c1cc(C(=O)Nc2ccc(Cl)cc2)no1
EC50: 2800 nM

CC(C)(C)c1cc(C(=O)Nc2ccc(F)c(Cl)c2)no1
EC50: 1930 nM

CC(C)c1cc(C(=S)Nc2ccc(F)c(Cl)c2)no1
EC50: 13900 nM

CC(C)c1cc(C(=O)Nc2cccc(Cl)c2)no1 [MLS000087323]
EC50: 860 nM

CC(C)c1cc(C(=O)Nc2ccc(F)cc2)no1
EC50: 1800 nM

CC(C)c1cc(C(=O)Nc2ccccc2Cl)no1
EC50: 6200 nM

CC(C)c1nc(NC(=O)c2ccc(F)c(Cl)c2)cs1
EC50: 1600 nM

CC(C)c1cc(C(=O)Nc2cccc(F)c2)no1
EC50: 340 nM

CC(C)c1cc(C(=O)Nc2nccs2)no1
EC50: 780 nM

COc1cccc(NC(=O)c2cc(C(C)C)on2)c1
EC50: 3600 nM

CC(C)c1cc(C(=O)Nc2ccccn2)no1
EC50: 360 nM

CC(C)c1cc(C(=O)N2CCc3ccccc32)no1
EC50: 720 nM

O=C(Nc1ccc(F)c(Cl)c1)c1cc(Cc2ccccc2)on1
EC50: 3560 nM

CC(C)c1cc(C(=O)Nc2ccccc2F)no1
EC50: 260 nM

CC(C)c1cc(C(=O)Nc2nc3ccccc3n2C)no1
EC50: 2600 nM

CC(C)c1cc(NC(=O)c2ccc(F)c(Cl)c2)no1
EC50: 9900 nM

CCc1cc(C(=O)Nc2ccc(F)c(Cl)c2)no1
EC50: 8800 nM

O=C(Nc1ncc(C2CCC2)s1)c1ccc(F)c(Cl)c1
EC50: 500 nM

CC(C)c1cc(C(=O)Nc2nc3ccccc3s2)no1
EC50: 170 nM

CC(C)c1cc(C(=O)Nc2cccnc2)no1 [MLS000087329]
EC50: 9900 nM

CC(C)c1cc(NC(=O)c2ccc(F)c(Cl)c2)on1
EC50: 5500 nM

Cc1ccccc1NC(=O)c1cc(C(C)C)on1
EC50: 5400 nM

CC(C)Cc1cc(C(=O)Nc2ccc(F)c(Cl)c2)no1
EC50: 1500 nM

Cc1ccc(NC(=O)c2cc(C(C)C)on2)cc1
EC50: 1400 nM

CC(C)c1cc(C(=O)Nc2nc3ccccc3[nH]2)no1
EC50: 260 nM

COc1ccccc1NC(=O)c1cc(C(C)C)on1
EC50: 7300 nM

CC(C)c1cc(C(=O)Nc2ccccc2)no1
EC50: 280 nM

CC(C)c1cc(CNc2ccc(F)c(Cl)c2)no1
EC50: 11200 nM

Cc1c(C(=O)Nc2ccc(F)c(Cl)c2)noc1C(C)C
EC50: 500 nM

From BindingDB's records for doi:10.1021/acs.jmedchem.6b01885 (Indiana University School of Medicine, 2017)
